Here are results for eleven compounds from patent US8084469B2, “Substituted piperidines” (Bayer Pharma Aktiengesellschaft, priority 2009, dated 2011).

SMILES strings stand for the structures. pIC50: −log10 of the molar value.

The target in this assay is T1, human protease activated receptor 1 (PAR-1) (Homo sapiens, UniProt P25116).
T1 construct: the cell stably expresses the endogenous human PAR-1 receptor; endogenous in cells; host or cells: HEK293-derived recombinant cell line; only the aequorin reporter is recombinant
T1 sequence (P25116 22-425): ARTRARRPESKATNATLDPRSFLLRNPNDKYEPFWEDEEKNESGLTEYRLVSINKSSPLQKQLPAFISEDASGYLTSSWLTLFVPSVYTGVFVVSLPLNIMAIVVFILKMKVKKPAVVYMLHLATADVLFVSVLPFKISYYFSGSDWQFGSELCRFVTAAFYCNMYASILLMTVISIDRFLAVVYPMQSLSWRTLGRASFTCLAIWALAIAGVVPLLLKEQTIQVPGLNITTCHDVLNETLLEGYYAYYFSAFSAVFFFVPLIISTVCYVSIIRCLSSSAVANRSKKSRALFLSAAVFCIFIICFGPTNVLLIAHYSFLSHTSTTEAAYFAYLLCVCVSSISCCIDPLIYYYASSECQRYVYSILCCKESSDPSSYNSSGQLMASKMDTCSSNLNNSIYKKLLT
Briefly: Cellular functional in vitro test (aequorin luminescence in recombinant HEK293 PAR-1 test cell). Type of assay: cell-based. The conditions noted are these: PAR-1 test cell (HEK293-derived), PAR-1 agonist at EC50 concentration, aequorin light signal. From the text:
Cellular Functional In Vitro Test
A recombinant cell line is used to identify antagonists of the human protease activated receptor 1 (PAR-1) and to quantify the activity of the substances described herein. The cell is originally derived from a human embryonal kidney cell (HEK293; ATCC: American Type Culture Collection, Manassas, Va. 20108, USA). The test cell line constitutively expresses a modified form of the calcium-sensitive photoprotein aequorin which, after reconstitution with the cofactor coelenterazine, emits light when the free calcium concentration in the inner mitochondrial compartment is increased (Rizzuto R, Simpson A W, Brini M, Pozzan T.; Nature 1992, 358, 325-327). Additionally, the cell stably expresses the endogenous human PAR-1 receptor and the endogenous purinergic receptor P2Y2. The resulting PAR-1 test cell responds to stimulation of the endogenous PAR-1 or P2Y2 receptor with an intracellular release of calcium ions, which can be quantified through the resulting aequorin luminescence with a suitable luminometer (Milligan G, Marshall F, Rees S, Trends in Pharmacological Sciences 1996, 17, 235-237).
For the testing of the substance specificity, the effect thereof after activation of the endogenous PAR-1 receptor is compared with the effect after activation of the endogenous purinergic P2Y2 receptor which utilizes the same intracellular signal path.
Test procedure: The cells are plated out two days (48 h) before the test in culture medium (DMEM F12, supplemented with 10% FCS, 2 mM glutamine, 20 mM HEPES, 1.4 mM pyruvate, 0.1 mg/ml gentamycin, 0.15% Na bicarbonate; BioWhittaker Cat.# BE04-687Q; B-4800 Verviers, Belgium) in 384-well microtitre plates and kept in a cell incubator (96% atmospheric humidity, 5% v/v CO2, 37° C.). On the day of the test, the culture medium is replaced by a tyrode solution (in mM: 140 sodium chloride, 5 potassium chloride, 1 magnesium chloride, 2 calcium chloride, 20 glucose, 20 HEPES), which additionally contains the cofactor coelenterazine (25 μM) and glutathione (4 mM), and the microtitre plate is then incubated for a further 3-4 hours. The test substances are then pipetted onto the microtitre plate, and 5 minutes after the transfer of the test substances into the wells of the microtitre plate the plate is transferred into the luminometer, a PAR-1 agonist concentration which corresponds to EC50 is added and the resulting light signal is immediately measured in the luminometer. To distinguish an antagonist substance action from a toxic action, the endogenous purinergic receptor is immediately subsequently activated with agonist (ATP, final concentration 10 μM) and the resulting light signal is measured.
Regarding `CCOc1noc(C2CC(c3ccc(CC(F)(F)F)cc3)CN(C(=O)N3CCS(=O)(=O)CC3)C2)n1` (single isomer, unassigned) [Example 69, (1,1-Dioxidothiomorpholin-4-yl){3-(3-ethoxy-1,2,4-oxadiazol-5-yl)-5-[4-(2,2,2-trifluoroethyl)-phenyl]piperidin-1-yl}methanone], the pIC50 (in general, −log10 of the IC50, conventionally taken in molar units) is 7.68.

Consider `CC(C)Oc1noc(C2CC(c3ccc(OC(F)(F)F)cc3)CN(C(=O)N3CCSCC3)C2)n1` (racemic) [Example 33, {3-(3-Isopropoxy-1,2,4-oxadiazol-5-yl)-5-[4-(trifluoromethoxy)phenyl]piperidin-1-yl}(thiomorpholin-4-yl)methanone], for which the pIC50 was 8.77.

On to `CCN(CCO)c1noc(C2CC(c3ccc(C(F)(F)F)cc3)CN(C(=O)N3CCOCC3)C2)n1` (racemic) [Example 16, (3-{3-[Ethyl(2-hydroxyethyl)amino]-1,2,4-oxadiazol-5-yl}-5-[4-(trifluoromethyl)phenyl]piperidin-1-yl)(morpholin-4-yl)methanone], for which the pIC50 is 7.16.

Turning to `CCOc1noc(C2CC(c3ccc(CC)cc3)CN(C(=O)N3CC(O)C3)C2)n1` (racemic) [Example 35, [3-(3-Ethoxy-1,2,4-oxadiazol-5-yl)-5-(4-ethylphenyl)piperidin-1-yl](3-hydroxyazetidin-1-yl)methanone], the pIC50 is 7.45.

As for `CCOc1noc(C2CC(c3ccc(CC(F)(F)F)c(F)c3)CN(C(=O)N3CC[S+]([O-])CC3)C2)n1` (single isomer, unassigned) [Example 80, {3-(3-Ethoxy-1,2,4-oxadiazol-5-yl)-5-[3-fluoro-4-(2,2,2-trifluoroethyl)phenyl]piperidin-1-yl}(1-oxidothiomorpholin-4-yl)methanone], the pIC50 was 8.29.

As for `CCc1ccc(C2CC(c3nc(OCCOC)no3)CN(C(=O)N3CCS(=O)(=O)CC3)C2)cc1` (single isomer, unassigned) [Example 63, (1,1-Dioxidothiomorpholin-4-yl){3-(4-ethylphenyl)-5-[3-(2-methoxyethoxy)-1,2,4-oxadiazol-5-yl]-piperidin-1-yl}methanone], the pIC50 is 7.69.

As for `CCOc1noc(C2CC(c3ccc(CC(F)(F)F)cc3)CN(C(=O)N3CC[S+]([O-])CC3)C2)n1` (single isomer, unassigned) [Example 66, {3-(3-Ethoxy-1,2,4-oxadiazol-5-yl)-5-[4-(2,2,2-trifluoroethyl)phenyl]piperidin-1-yl}(1-oxidothio-morpholin-4-yl)methanone], the pIC50 is 7.19.

On to `CCN(CC)c1noc(C2CC(c3ccc(C(F)(F)F)cc3)CN(C(=O)N3CCOCC3)C2)n1` (single isomer, unassigned) [Example 6, {3-[3-(Diethylamino)-1,2,4-oxadiazol-5-yl]-5-[4-(trifluoromethyl)phenyl]piperidin-1-yl}-(morpholin-4-yl)methanone], for which the pIC50 is 8.06.

In the case of `O=C(N1CCOCC1)N1CC(c2ccc(C(F)(F)F)cc2)CC(c2nc(NC3CC3)no2)C1` (racemic) [Example 9, {3-[3-(Cyclopropylamino)-1,2,4-oxadiazol-5-yl]-5-[4-(trifluoromethyl)phenyl]piperidin-1-yl}-(morpholin-4-yl)methanone], the negative-log IC50 (pIC50) was 7.84.

Take `CCOc1noc(C2CC(c3ccc(CC(F)(F)F)cc3)CN(C(=O)N3CCS(=O)(=O)CC3)C2)n1` (racemic) [Example 67, (1,1-Dioxidothiomorpholin-4-yl){3-(3-ethoxy-1,2,4-oxadiazol-5-yl)-5-[4-(2,2,2-trifluoroethyl)-phenyl]piperidin-1-yl}methanone]: the pIC50 is 7.92.

For the compound `CCOc1noc(C2CC(c3ccc(CC)c(F)c3)CN(C(=O)N3CCS(=O)(=O)CC3)C2)n1` (racemic) [Example 101, (1,1-Dioxidothiomorpholin-4-yl)[3-(3-ethoxy-1,2,4-oxadiazol-5-yl)-5-(4-ethyl-3-fluorophenyl)-piperidin-1-yl]methanone], the pIC50 is 8.20.
